# Laboratory results from patent US20110150795A1, “COSMETIC COMPOSITIONS COMPRISING EXOPOLYSACCHARIDES DERIVED FROM MICROBIAL MATS, AND USE THEREOF” (Innovactiv Inc., priority 2008, published 2011).
# Marks after values point to notes of the source that are not given here.
# Experiments:
# kallikrein 5 (KLK5) mRNA = assay: RT-QPCR gene expression in human keratinocytes: KLK5; format: cell-based; conditions: Table VIII (first step), 24 h
# Experimental: (§1) This assay was performed in order to measure the effects of the EPSs on the induction of mRNA coding for differentiation proteins (filaggrin, loricrin, involucrin) and for stratum corneum tryptic enzyme involved in desquamation (kallikrein 5, 6 and 7). The relative expression of the selected markers was assayed using the “real time quantitative polymerase chain reaction” technology (RT-QPCR).
# (§2) Keratinocytes were pre-cultivated in culture medium. At confluence, the culture medium was changed into assay medium (SFM without EGF and pituitary extract) containing or not (control) the test compound and the cells were incubated for 24 h at 37° C. and 5% CO2. At the end of the experiment, the cells were washed in PBS buffer and immediately frozen at −80° C. with 300 μl per well of Tri-reagent.
# (§3) Primers couples allowing the amplification of a specific Polymerase Chain Reactions (PCR) product from each selected marker were used: Liver glyceraldehyde 3-phosphate dehydrogenase (G3PDH) was used as a reference marker in this experiment. The total RNA extraction was performed by Tri-Reagent™ according to the protocol. […]
# (§4) Initially, the modulation of gene expression was evaluated on six EPSs at the first concentration (Table VIII). As a second step, it was evaluated on four EPSs at three concentrations (Table IX).
# [1] = test system: kallikrein 6 (KLK6, neurosin) mRNA; assay: RT-QPCR gene expression in human keratinocytes: KLK6; format: cell-based; conditions: Table VIII (first step), 24 h
# Experimental: as §1, §2, §3, §4
# [2] = test system: kallikrein 7 (KLK7, stratum corneum chymotrypsic enzyme) mRNA; assay: RT-QPCR gene expression in human keratinocytes: KLK7; format: cell-based; conditions: Table VIII (first step), 24 h
# Experimental: as §1, §2, §3, §4
# involucrin (INV) mRNA = assay: RT-QPCR gene expression in human keratinocytes: involucrin; format: cell-based; conditions: Table VIII (first step), 24 h
# Experimental: as §1, §2, §3, §4
# filaggrin (FLG) mRNA = assay: RT-QPCR gene expression in human keratinocytes: filaggrin; format: cell-based; conditions: Table VIII (first step), 24 h
# Experimental: as §1, §2, §3, §4
# loricrin (LOR) mRNA = assay: RT-QPCR gene expression in human keratinocytes: loricrin; format: cell-based; conditions: Table VIII (first step), 24 h
# Experimental: as §1, §2, §3, §4
# [3] = test system: SkinEthic reconstructed human epidermis; assay: Epidermal lipid synthesis (14C-acetate incorporation, TLC) in reconstructed epidermis; format: cell-based; conditions: 10^−6M in culture medium (systemic), 72 h
# Experimental: This study was performed to evaluate the effect of EPSs of the invention on lipid synthesis. Phospholipids (cellular membranes) and neutral lipids (including epidermis specific lipids) were measured separately using thin layer chromatography. SkinEthic™ reconstructed human epidermis was used for model, its composition being close to normal human epidermis.
# The epidermal tissues were placed in 24-well plates and cultivated for 12 h in SkinEthic™ medium. The medium was then replaced by fresh medium and the tested EPSS were applied on the surface of epidermis (topical treatment), at the indicated concentrations. Three control epidermises were untreated and three reference epidermises were treated with the retinoic acid, a known stimulant of total skin lipids, in the culture medium (systemic treatment). All treatments were performed in triplicate and cultivated for 72 hours in total. After 24 h treatment, the culture medium was replaced by labelling medium (0.225 μCi/wells of [^14C] acetate) and the epidermises were treated. The labelling was carried out during a 48-hour incubation period. The Radioactive marker used was [2-14C]-Acetic acid sodium salt, Amersham CFA14 (2.04 Gbq/mmol, 55 mCi/mmol). The epidermises were washed in PBS solution and were dissociated. Then, cells were lysed by treatment with perchloric acid at 0.5 M on ice. Lipids were extracted by methanol/chloroform (2:1) and phase separation was performed by addition of PBS and chloroform after neutralisation in accordance with the procedure described by Bligh and Dyer. The radioactivity was quantified by incorporation into organic phase (lipids) with liquid scintillation (LKB 1210 Rackbeta) after chloroform evaporation. The organic phases were dried under nitrogen and thin layer chromatography (TLC; plates Merck K60) was performed by using two solvent systems: chloroform/methanol/water for Phospholipids (50:18:2.6) or hexane/ether/acetic acid for Neutral lipids (15:5.6:0.19). The various metabolites were quantified by performing a direct count of the radioactivity of the various spots on TLC plates with Phosphorlmager Cyclone™ and Multigauge software (Fujifilm).
# [4] = test system: intracellular lipid peroxides of irradiated keratinocytes; assay: Lipid peroxides in UV-irradiated keratinocytes (C11-Fluor probe, flow cytometry); format: cell-based, human; conditions: 50 μM; UVB 210 mJ/cm^2
# Experimental: This study was performed to evaluate the effect of EPSs of the invention on the relative quantification of the amount of lipid peroxides (LP) (degradation of skin lipids) in human cells exposed or not to UVA+UVB irradiation. The evaluation was obtained by using a specific fluorescent probe and fluorescence flow cytometry analysis. This method offers a great sensitivity because the fluorescence of each cell is measured and numerous cells are evaluated (10000 cells per experimental condition).
# Keratinocytes were pre-cultivated in complete SFM medium up to 100% of confluence. The culture medium was then replaced with assay medium containing or not the tested EPSS or the reference and the cells were incubated at 37° C. and 5% CO2 for 24 h. After incubation, a specific probe, fluorescent analogue of lipids (C11-Fluor) and the tested EPS or the references were incorporated and the cells were incubated at 37° C. and 5% CO2 for 45 minutes. The probe was then eliminated by rinsing with culture medium. The washing medium was replaced with culture medium containing the tested EPSs or the references. Untreated controls were carried out in parallel. The cells were irradiated at 210 mJ/cm^2 UVB. […] The fluorescence parameters were measured by flow cytometry with a FACSArray™ cytometer driven by the FACSArray™ system software (Becton-Dickinson) on 10 000 individual cells (no cell population selection). […]
# human skin explants = assay: Antipollution activity on human skin explants (MDA assay, morphology); conditions: for MDA concentration: 2 mg per explant topical
# Experimental: This study was performed to evaluate the antipollution activity of a cosmetic product though its effect against free radicals on normal skin. A mixture of pollutants and heavy metals was used to mimic the harmful effects of an environmental pollution (like fumes, smoke . . . ). Explants were used as a skin model in this experiment as a good model of human skin.
# Pieces of human skin (27 explants) were prepared from an abdominal biopsy removed from a healthy subject during cosmetic reductive surgery. They were placed in BEM medium at 37° C. and 5% CO2. The tested EPSS were applied on the surface of epidermis (topical treatment) at the indicated concentrations (2 mg per explant). They were applied the first day (Day 0) and after one, two, three and four days (Day 1, Day 2, Day 3 and Day 4).
# At Day 4, 30 μL of a mixture of heavy metals (Table XII) and hydrocarbon was applied on a paper disk and immediately placed on identified explants.
# At Day 0 and Day 5, 3 explants of each batch were removed and fixed in Bouin's liquid for morphological observation. After 48 hours in Bouin medium, explants were dehydrated, embedded in paraffin and stained in Masson's Trichrome. The MDA assay (Malondialdehyde, a stable product from the radical alteration) was performed in culture medium of Day 3, 24 h after irradiation to quantify the efficiency of products against free radicals generated by pollutants.
# [5] = test system: senescent human fibroblasts; assay: Hyaluronic acid synthesis by senescent human fibroblasts (ELISA), with or without TGFβ; format: cell-based; conditions: for HA / HA % of control: 72 h
# Source text: This study has been performed in order to evaluate the effects of the EPSs on the synthesis of hyaluronic acid by senescent human fibroblasts. […] These senescent cells are obtained by subcultures of normal dermal fibroblasts and a senescent phenotype is obtained from the 12th passage.
# This effect was attributed to an increase in sensitivity of cells to EGF. Based on this observation for EGF, a similar situation could exist for other factors like TGFβ. TGFβ has the ability to trigger HA synthesis. It has been observed however, that older cells become desensitized to TGFβ. Two types of effects of EPSS have thus been tested: their direct effect on the production of HA and their possibility to restore sensitivity of the cells to TGFβ.
# Senescent fibroblasts were pre-cultivated for 24 hours until confluence. Then, the culture medium was removed and replaced by assay medium containing or not (control), the tested EPSS alone, TGFβ alone or the mix of tested EPSS with TGFβ. The cells were then cultivated for 72 hours. At the end of the incubation, the hyaluronic acid concentration was evaluated in the supernatant by a standard ELISA assay according to the manufacturer's procedures (R&D Systems DY3614) and cell viability was evaluated by using a standard MTT incorporation assay.
# human keratinocytes = assay: Overall desquamation/differentiation gene expression profile in human keratinocytes; format: cell-based; conditions: 24 h
# Experimental: as §1, §2, §3, §4
# [6] = skin explants without contaminant
# [7] = culture with TGFβ section, TGFβ alone 1 · 10^−5 g/L (reference of this section)
# [8] = culture without TGFβ section, TGFβ alone 1 · 10^−5 g/L
molecule,measurement,setting,value
CC1=C(/C=C/C(C)=C/C=C/C(C)=C/C(=O)O)C(C)(C)CCC1 [Retinoic acid],KLK5 expression (control = 100),kallikrein 5 (KLK5) mRNA; 10^−7M,146
same,KLK6 expression (control = 100),[1]; 10^−7M,315
same,KLK7 expression (control = 100),[2]; 10^−7M,268
same,INV expression (control = 100),involucrin (INV) mRNA; 10^−7M,79
same,FLG expression (control = 100),filaggrin (FLG) mRNA; 10^−7M,35
same,LOR expression (control = 100),loricrin (LOR) mRNA; 10^−7M,29
same,Ceramides and cerebrosides (Cera/Cere) synthesis,[3],85* % Control
same,Cholesterol (C) synthesis,[3],77* % Control
same,Esterified Fatty Acids (EFA) synthesis,[3],133 % Control
same,Free Fatty Acids (FFA) synthesis,[3],76 % Control
same,Phospholipids (PL) synthesis,[3],105 % Control
same,Sphingomyelin (SM) synthesis,[3],106 % Control
same,Sulfate Cholesterol (CSO4) synthesis,[3],92 % Control
same,Total Lipids (TL) synthesis,[3],175** % Control
same,Total Lipids (TL) synthesis,[3]; listed as retinoic acid,175 % Control
COc1ccc(O)c(C(C)(C)C)c1 [BHA],% protection (intracellular lipid peroxides),[4],76%
Cc1c(C)c2c(c(C)c1O)CC[C@@](C)(CCC[C@H](C)CCC[C@H](C)CCCC(C)C)O2 [α tocopherol],% pollution,human skin explants; skin explants + contaminant,24.13%
same,% protection,human skin explants; skin explants + contaminant,75.9%
same,antipollution activity (conclusion of MDA assay),human skin explants; skin explants + contaminant,reduced pollutants activity
same,MDA concentration,human skin explants; skin explants + contaminant (heavy metals and hydrocarbon),544.93 pmol/mL
same,% pollution,human skin explants; [6],0.00%
same,MDA concentration,human skin explants; [6],392.28 pmol/mL
TGFβ,increase of hyaluronic acid synthesis,[5]; TGFβ at 10 ng/ml,4 folds
same,HA,[5]; [7],16.05 µg/mL
same,HA % of control,[5]; [7],100%
same,HA,[5]; [8],11.73 µg/mL
same,HA % of control,[5]; [8],473** %
[Ca+2].[Cl-].[Cl-] [CaCl2],KLK5 expression (control = 100),kallikrein 5 (KLK5) mRNA; 1.5 mM,207
same,KLK6 expression (control = 100),[1]; 1.5 mM,110
same,KLK7 expression (control = 100),[2]; 1.5 mM,291
same,INV expression (control = 100),involucrin (INV) mRNA; 1.5 mM,282
same,FLG expression (control = 100),filaggrin (FLG) mRNA; 1.5 mM,125
same,LOR expression (control = 100),loricrin (LOR) mRNA; 1.5 mM,98
same,desquamation/differentiation gene expression profile,human keratinocytes,pro differentiation profile
